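Grown in 96-well plates, cells were treated for 48 hours with each compound at five concentrations. Insufficient inhibition: endpoint recorded as highest concentration tested. At the GI50, growth is halved. TGI: concentration producing complete growth inhibition.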
What was measured:
Test in all cases: NCI anticancer screen, dose series, 48 h
U251 CNS = test system: U251 CNS
UO-31 renal = test system: UO-31 renal
ACHN renal = test system: ACHN renal
DU-145 prostate = test system: DU-145 prostate
MDA-MB-231 breast = test system: MDA-MB-231 breast
OVCAR-8 ovarian = test system: OVCAR-8 ovarian
OVCAR-4 ovarian = test system: OVCAR-4 ovarian
SN12C renal = test system: SN12C renal
M14 melanoma = test system: M14 melanoma
NCI/ADR-RES ovarian = test system: NCI/ADR-RES ovarian
SNB-75 CNS = test system: SNB-75 CNS
LOX IMVI melanoma = test system: LOX IMVI melanoma
SW-620 colon = test system: SW-620 colon
SF-539 CNS = test system: SF-539 CNS
HOP-92 NSCLC = test system: HOP-92 NSCLC
SF-295 CNS = test system: SF-295 CNS
HCC-2998 colon = test system: HCC-2998 colon
SF-268 CNS = test system: SF-268 CNS
RPMI-8226 leukemia = test system: RPMI-8226 leukemia
COLO 205 colon = test system: COLO 205 colon
OVCAR-3 ovarian = test system: OVCAR-3 ovarian
SR leukemia = test system: SR leukemia
TK-10 renal = test system: TK-10 renal
NCI-H23 lung = test system: NCI-H23 lung
SK-MEL-28 melanoma = test system: SK-MEL-28 melanoma
T-47D breast = test system: T-47D breast
OVCAR-5 ovarian = test system: OVCAR-5 ovarian
IGROV1 ovarian = test system: IGROV1 ovarian
SK-MEL-2 melanoma = test system: SK-MEL-2 melanoma
HCT-15 colon = test system: HCT-15 colon
HOP-62 NSCLC = test system: HOP-62 NSCLC
KM12 colon = test system: KM12 colon
NCI-H460 lung = test system: NCI-H460 lung
MOLT-4 leukemia = test system: MOLT-4 leukemia
CAKI-1 renal = test system: CAKI-1 renal
SK-OV-3 ovarian = test system: SK-OV-3 ovarian
NCI-H522 lung = test system: NCI-H522 lung
K-562 leukemia = test system: K-562 leukemia
NCI-H226 lung = test system: NCI-H226 lung
786-0 renal = test system: 786-0 renal
HCT-116 colon = test system: HCT-116 colon
MALME-3M melanoma = test system: MALME-3M melanoma
MDA-MB-435 = test system: MDA-MB-435
A498 renal = test system: A498 renal
UACC-62 melanoma = test system: UACC-62 melanoma
MCF7 breast = test system: MCF7 breast
BT-549 breast = test system: BT-549 breast
UACC-257 melanoma = test system: UACC-257 melanoma
HS 578T breast = test system: HS 578T breast
A549 NSCLC = test system: A549 NSCLC
PC-3 prostate = test system: PC-3 prostate
CCRF-CEM leukemia = test system: CCRF-CEM leukemia
EKVX NSCLC = test system: EKVX NSCLC
HL-60(TB) leukemia = test system: HL-60(TB) leukemia
SNB-19 CNS = test system: SNB-19 CNS

O=C1c2ccccc2-c2c1c1ccc([N+](=O)[O-])cc1c(=O)n2CCCN1CCOCC1
GI50 (U251 CNS): 92.3 nM
TGI (U251 CNS): 15800 nM
GI50 (UO-31 renal): 195 nM
TGI (UO-31 renal): > 100000 nM
GI50 (ACHN renal): 128 nM
GI50 (DU-145 prostate): 84 nM
TGI (DU-145 prostate): 3090 nM
GI50 (MDA-MB-231 breast): 24800 nM
TGI (MDA-MB-231 breast): > 87400 nM
GI50 (OVCAR-8 ovarian): 320 nM
TGI (OVCAR-8 ovarian): > 100000 nM
GI50 (OVCAR-4 ovarian): 776 nM
TGI (OVCAR-4 ovarian): > 48300 nM
GI50 (SN12C renal): 333 nM
TGI (SN12C renal): > 100000 nM
GI50 (M14 melanoma): 122 nM
TGI (M14 melanoma): 495 nM
GI50 (NCI/ADR-RES ovarian): 293 nM
TGI (NCI/ADR-RES ovarian): 24800 nM
GI50 (SNB-75 CNS): 1010 nM
TGI (SNB-75 CNS): > 100000 nM
GI50 (LOX IMVI melanoma): 81.3 nM
TGI (LOX IMVI melanoma): 338 nM
GI50 (SW-620 colon): 160 nM
TGI (SW-620 colon): > 100000 nM
GI50 (SF-539 CNS): 119 nM
TGI (SF-539 CNS): 415 nM
TGI (HOP-92 NSCLC): > 41100 nM
GI50 (SF-295 CNS): 182 nM
TGI (SF-295 CNS): 31800 nM
GI50 (HCC-2998 colon): > 41000 nM
TGI (HCC-2998 colon): > 100000 nM
GI50 (SF-268 CNS): 114 nM
TGI (SF-268 CNS): > 100000 nM
GI50 (RPMI-8226 leukemia): 138 nM
TGI (RPMI-8226 leukemia): 521 nM
GI50 (COLO 205 colon): 7920 nM
TGI (COLO 205 colon): > 100000 nM
GI50 (OVCAR-3 ovarian): 12400 nM
TGI (OVCAR-3 ovarian): 29900 nM
GI50 (SR leukemia): 13.9 nM
TGI (SR leukemia): > 100000 nM
GI50 (TK-10 renal): 25200 nM
TGI (TK-10 renal): > 100000 nM
GI50 (NCI-H23 lung): 160 nM
GI50 (SK-MEL-28 melanoma): > 100000 nM
TGI (SK-MEL-28 melanoma): > 100000 nM
GI50 (T-47D breast): 97.1 nM
TGI (T-47D breast): > 100000 nM
GI50 (OVCAR-5 ovarian): 13000 nM
TGI (OVCAR-5 ovarian): > 100000 nM
GI50 (IGROV1 ovarian): 238 nM
TGI (IGROV1 ovarian): > 100000 nM
GI50 (SK-MEL-2 melanoma): > 61200 nM
TGI (SK-MEL-2 melanoma): > 100000 nM
GI50 (HCT-15 colon): 396 nM
TGI (HCT-15 colon): > 100000 nM
GI50 (HOP-62 NSCLC): 48.6 nM
TGI (HOP-62 NSCLC): 346 nM
GI50 (KM12 colon): 258 nM
TGI (KM12 colon): > 100000 nM
GI50 (NCI-H460 lung): 193 nM
TGI (NCI-H460 lung): > 100000 nM
GI50 (MOLT-4 leukemia): 62.5 nM
TGI (MOLT-4 leukemia): > 100000 nM
GI50 (CAKI-1 renal): 232 nM
TGI (CAKI-1 renal): > 100000 nM
GI50 (SK-OV-3 ovarian): 6570 nM
TGI (SK-OV-3 ovarian): > 100000 nM
GI50 (NCI-H522 lung): 424 nM
TGI (NCI-H522 lung): > 100000 nM
GI50 (K-562 leukemia): 324 nM
TGI (K-562 leukemia): > 100000 nM
GI50 (NCI-H226 lung): > 34300 nM
TGI (NCI-H226 lung): > 64800 nM
GI50 (786-0 renal): 135 nM
TGI (786-0 renal): 2320 nM
GI50 (HCT-116 colon): 85.1 nM
TGI (HCT-116 colon): 1810 nM
GI50 (MALME-3M melanoma): 268 nM
TGI (MALME-3M melanoma): 24700 nM
GI50 (MDA-MB-435): 867 nM
TGI (MDA-MB-435): > 100000 nM
GI50 (A498 renal): > 38800 nM
TGI (A498 renal): > 92400 nM
GI50 (UACC-62 melanoma): 403 nM
TGI (UACC-62 melanoma): > 100000 nM
GI50 (MCF7 breast): < 16.6 nM
TGI (MCF7 breast): > 100000 nM
GI50 (BT-549 breast): 311 nM
TGI (BT-549 breast): 16700 nM
GI50 (UACC-257 melanoma): 19600 nM
TGI (UACC-257 melanoma): > 100000 nM
GI50 (HS 578T breast): 5970 nM
TGI (HS 578T breast): > 56700 nM
GI50 (A549 NSCLC): 9370 nM
TGI (A549 NSCLC): > 100000 nM
GI50 (PC-3 prostate): 291 nM
TGI (PC-3 prostate): > 100000 nM
GI50 (CCRF-CEM leukemia): 22.4 nM
TGI (CCRF-CEM leukemia): 121 nM
GI50 (EKVX NSCLC): 20900 nM
TGI (EKVX NSCLC): > 92700 nM
GI50 (HL-60(TB) leukemia): 147 nM
TGI (HL-60(TB) leukemia): > 100000 nM
GI50 (SNB-19 CNS): 378 nM
TGI (SNB-19 CNS): > 52600 nM

Reference: PubChem BioAssay (NCI)
